Here are results for seven compounds from ChEMBL document CHEMBL1159191, “2-alkyl-4-ethyl-5-[6-methyl-6-(2H-tetrazol-5-yl)heptyloxy]phenol leukotriene B4 receptor antagonists” (Bioorg Med Chem Lett, 1995).

The species entered for one experiment is Cavia porcellus. Put plainly: Compound was evaluated for antagonism of LTB4 effect on guinea pig lung strip contraction. Type of experiment: functional.
A further experiment concerns the target Leukotriene B4 receptor (Homo sapiens, UniProt Q9NPC1+Q15722). Put plainly: LTB4-induced up-regulation of CD11b/CD18 in human neutrophils. The class given is functional.
In experiment [1] the target is Leukotriene B4 receptor 1 (Homo sapiens, UniProt Q15722). Put plainly: Binding affinity against human neutrophil Receptor.
Sequence of Leukotriene B4 receptor 1 (Q15722 whole entry): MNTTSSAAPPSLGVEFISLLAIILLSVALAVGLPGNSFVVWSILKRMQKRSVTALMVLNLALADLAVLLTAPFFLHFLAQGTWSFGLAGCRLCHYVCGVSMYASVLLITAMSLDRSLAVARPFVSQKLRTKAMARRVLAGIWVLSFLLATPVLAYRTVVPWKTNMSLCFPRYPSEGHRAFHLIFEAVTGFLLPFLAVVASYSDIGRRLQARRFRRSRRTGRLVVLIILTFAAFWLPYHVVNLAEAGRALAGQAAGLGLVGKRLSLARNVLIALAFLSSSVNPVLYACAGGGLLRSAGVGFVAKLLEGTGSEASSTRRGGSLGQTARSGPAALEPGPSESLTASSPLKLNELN

With `CCCCc1cc(CC)c(OCCCCCC(C)(C)c2nn[nH]n2)cc1O`, the Kb in the experiment listed under Cavia porcellus was 53 nM.
Same read-out and setting: the figure for `CCCCCOc1cc(CC)c(OCCCCCC(C)(C)c2nn[nH]n2)cc1O` is 216 nM; for `CCc1cc(OC)c(O)cc1OCCCCCC(C)(C)c1nn[nH]n1` it is 222 nM.
Same read-out and setting: the figure for `CCOc1cc(CC)c(OCCCCCC(C)(C)c2nn[nH]n2)cc1O` is 264 nM.
`CCCCCCc1cc(CC)c(OCCCCCC(C)(C)c2nn[n-]n2)cc1O.[Na+]` returned a concentration for half-maximal inhibition (IC50) against Leukotriene B4 receptor of 878 nM. Besides, in the experiment listed under Cavia porcellus, the Kb is 688 nM. The same compound gave a Ki in experiment [1] of 28.4 nM.
With `CCCc1cc(CC)c(OCCCCCC(C)(C)c2nn[nH]n2)cc1O`, the antagonist dissociation constant (Kb) in the experiment filed under Cavia porcellus amounted to 34 nM. This compound showed an inhibition constant Ki in experiment [1] of 5.53 nM.
Turning to `CCc1cc(CC)c(OCCCCCC(C)(C)c2nn[n-]n2)cc1O.[Na+]`, the IC50 against Leukotriene B4 receptor turned out to be 179 nM. This compound also had an antagonist equilibrium constant (Kb) in the experiment filed under Cavia porcellus of 167 nM. Moreover, affinity in experiment [1] was put at a Ki of 5.14 nM.
